Data reported in ChEMBL document CHEMBL1201862, “PubChem BioAssay data set” (2004).
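Assay format: 96-well plates, 48-hour exposure. GI50 is the concentration that inhibits growth by half.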 The source made the active and inactive calls. No stated cut-off is given here; in the data, active = GI50 up to about 1.1 µM and inactive = higher.

Assays:
Experiment in all cases: DTP human tumour cell line panel, 48 h
T47D = tested on: T47D
A549 = tested on: A549
NCI-H460 = tested on: NCI-H460
COLO 205 = tested on: COLO 205
KM12 = tested on: KM12
RPMI-8226 = tested on: RPMI-8226
MDA-N = tested on: MDA-N
UO-31 = tested on: UO-31
SNB-75 = tested on: SNB-75
MCF7 = tested on: MCF7
786-0 = tested on: 786-0
MDA-MB-231 = tested on: MDA-MB-231
HOP-62 = tested on: HOP-62
SK-OV-3 = tested on: SK-OV-3
SF-295 = tested on: SF-295
NCI-H522 = tested on: NCI-H522
NCI/ADR-RES = tested on: NCI/ADR-RES
A498 = tested on: A498
SK-MEL-5 = tested on: SK-MEL-5
Hs-578T = tested on: Hs-578T
MOLT-4 = tested on: MOLT-4
IGROV-1 = tested on: IGROV-1
U-251 = tested on: U-251
K562 = tested on: K562
NCI-H226 = tested on: NCI-H226
HCT-116 = tested on: HCT-116
M14 = tested on: M14
HCT-15 = tested on: HCT-15
LOX IMVI = tested on: LOX IMVI
OVCAR-8 = tested on: OVCAR-8
HL-60 = tested on: HL-60
TK-10 = tested on: TK-10
HOP-92 = tested on: HOP-92
CCRF-CEM = tested on: CCRF-CEM
DU-145 = tested on: DU-145
OVCAR-5 = tested on: OVCAR-5
NCI-H23 = tested on: NCI-H23
UACC-62 = tested on: UACC-62
MDA-MB-435 = tested on: MDA-MB-435
RXF 393 = tested on: RXF 393
ACHN = tested on: ACHN
OVCAR-4 = tested on: OVCAR-4
BT-549 = tested on: BT-549
SF-268 = tested on: SF-268
SW-620 = tested on: SW-620
SN12C = tested on: SN12C
UACC-257 = tested on: UACC-257
HCC 2998 = tested on: HCC 2998
CAKI-1 = tested on: CAKI-1
EKVX = tested on: EKVX
SK-MEL-2 = tested on: SK-MEL-2
OVCAR-3 = tested on: OVCAR-3
SK-MEL-28 = tested on: SK-MEL-28
SR = tested on: SR
PC-3 = tested on: PC-3
HT-29 = tested on: HT-29
SNB-19 = tested on: SNB-19
Malme-3M = tested on: Malme-3M
SF-539 = tested on: SF-539

CC1(C)OC(=O)N(c2ccccc2)C12C=Cc1cc([N+](=O)[O-])cc([N+](=O)[O-])c1O2 (stereo not drawn)
GI50 (T47D): > 100 µM (inactive)
GI50 (A549): > 100 µM (inactive)
GI50 (NCI-H460): > 100 µM (inactive)
GI50 (COLO 205): > 100 µM (inactive)
GI50 (KM12): > 100 µM (inactive)
GI50 (RPMI-8226): > 100 µM (inactive)
GI50 (MDA-N): > 100 µM (inactive)
GI50 (UO-31): 34.2 µM (inactive)
GI50 (SNB-75): 66.5 µM (inactive)
GI50 (MCF7): > 100 µM (inactive)
GI50 (786-0): > 100 µM (inactive)
GI50 (MDA-MB-231): > 100 µM (inactive)
GI50 (HOP-62): 97.9 µM (inactive)
GI50 (SK-OV-3): > 100 µM (inactive)
GI50 (SF-295): > 100 µM (inactive)
GI50 (NCI-H522): 25.2 µM (inactive)
GI50 (NCI/ADR-RES): > 100 µM (inactive)
GI50 (A498): 81.3 µM (inactive)
GI50 (SK-MEL-5): > 100 µM (inactive)
GI50 (Hs-578T): 59.8 µM (inactive)
GI50 (MOLT-4): > 100 µM (inactive)
GI50 (IGROV-1): > 100 µM (inactive)
GI50 (U-251): > 100 µM (inactive)
GI50 (K562): 89.3 µM (inactive)
GI50 (NCI-H226): > 100 µM (inactive)
GI50 (HCT-116): > 100 µM (inactive)
GI50 (M14): 61.5 µM (inactive)
GI50 (HCT-15): > 100 µM
GI50 (LOX IMVI): > 100 µM (inactive)
GI50 (OVCAR-8): > 100 µM (inactive)
GI50 (HL-60): 61.9 µM (inactive)
GI50 (TK-10): > 100 µM (inactive)
GI50 (HOP-92): 12.4 µM (inactive)
GI50 (CCRF-CEM): > 100 µM (inactive)
GI50 (DU-145): > 100 µM (inactive)
GI50 (OVCAR-5): > 100 µM (inactive)
GI50 (NCI-H23): > 100 µM (inactive)
GI50 (UACC-62): 61 µM (inactive)
GI50 (MDA-MB-435): 83.9 µM (inactive)
GI50 (RXF 393): > 100 µM (inactive)
GI50 (ACHN): > 100 µM (inactive)
GI50 (OVCAR-4): 92 µM (inactive)
GI50 (BT-549): > 100 µM (inactive)
GI50 (SF-268): 98.9 µM (inactive)
GI50 (SW-620): > 100 µM (inactive)
GI50 (SN12C): > 100 µM (inactive)
GI50 (UACC-257): 50.2 µM (inactive)
GI50 (HCC 2998): > 100 µM (inactive)
GI50 (CAKI-1): > 100 µM (inactive)
GI50 (EKVX): 91.8 µM (inactive)
GI50 (SK-MEL-2): > 100 µM (inactive)
GI50 (OVCAR-3): 97.7 µM (inactive)
GI50 (SK-MEL-28): > 100 µM (inactive)
GI50 (SR): > 100 µM (inactive)
GI50 (PC-3): 91.2 µM (inactive)
GI50 (HT-29): > 100 µM (inactive)
GI50 (SNB-19): > 100 µM (inactive)

Cc1ccc2c(c1)SSSSS2
GI50 (T47D): 12.6 µM (inactive)
GI50 (A549): 20.4 µM (inactive)
GI50 (NCI-H460): 18.4 µM (inactive)
GI50 (COLO 205): 29.4 µM (inactive)
GI50 (KM12): 18.9 µM (inactive)
GI50 (MDA-N): 23.4 µM (inactive)
GI50 (UO-31): 16.3 µM (inactive)
GI50 (SNB-75): 23.8 µM (inactive)
GI50 (MCF7): 18.6 µM (inactive)
GI50 (786-0): 15.8 µM (inactive)
GI50 (MDA-MB-231): 25.6 µM (inactive)
GI50 (HOP-62): 20.2 µM (inactive)
GI50 (SK-OV-3): 21.9 µM (inactive)
GI50 (SF-295): 19.8 µM (inactive)
GI50 (NCI-H522): 16.3 µM (inactive)
GI50 (NCI/ADR-RES): 25.4 µM (inactive)
GI50 (A498): 18.9 µM (inactive)
GI50 (SK-MEL-5): 19.1 µM (inactive)
GI50 (Hs-578T): 26.9 µM (inactive)
GI50 (MOLT-4): 30.5 µM (inactive)
GI50 (IGROV-1): 19.3 µM (inactive)
GI50 (U-251): 34.3 µM (inactive)
GI50 (K562): 22.1 µM (inactive)
GI50 (HCT-116): 14.3 µM (inactive)
GI50 (M14): 21.3 µM (inactive)
GI50 (HCT-15): 14.1 µM
GI50 (LOX IMVI): 16.2 µM (inactive)
GI50 (OVCAR-8): 21.9 µM (inactive)
GI50 (HL-60): 20 µM (inactive)
GI50 (TK-10): 20 µM (inactive)
GI50 (HOP-92): 18.5 µM (inactive)
GI50 (CCRF-CEM): 4.1 µM (inactive)
GI50 (DU-145): 16.6 µM (inactive)
GI50 (OVCAR-5): 22.1 µM (inactive)
GI50 (NCI-H23): 20.8 µM (inactive)
GI50 (UACC-62): 18.3 µM (inactive)
GI50 (MDA-MB-435): 21 µM (inactive)
GI50 (RXF 393): 21.1 µM (inactive)
GI50 (ACHN): 18.4 µM (inactive)
GI50 (OVCAR-4): 18.3 µM (inactive)
GI50 (BT-549): 19.8 µM (inactive)
GI50 (Malme-3M): 17.7 µM (inactive)
GI50 (SF-268): 25.8 µM (inactive)
GI50 (SW-620): 15.1 µM (inactive)
GI50 (SN12C): 16.5 µM (inactive)
GI50 (UACC-257): 17.6 µM (inactive)
GI50 (HCC 2998): 17.7 µM (inactive)
GI50 (CAKI-1): 21 µM (inactive)
GI50 (EKVX): 23.3 µM (inactive)
GI50 (OVCAR-3): 21.8 µM (inactive)
GI50 (SK-MEL-28): 17.1 µM (inactive)
GI50 (SR): 40.3 µM (inactive)
GI50 (PC-3): 22.5 µM (inactive)
GI50 (HT-29): 28.1 µM (inactive)
GI50 (SNB-19): 20.6 µM (inactive)

COC(=O)C12CCC(C)(C)CC1C1=CCC3C4(C)CC(O)C(O)C(C)(C(=O)OC)C4CCC3(C)C1(CO)CC2 (stereo not drawn)
GI50 (SF-539): 15.7 µM (inactive)
GI50 (T47D): 10.7 µM (inactive)
GI50 (A549): 13.4 µM (inactive)
GI50 (NCI-H460): 15.7 µM (inactive)
GI50 (COLO 205): 15.3 µM (inactive)
GI50 (KM12): 9.38 µM (inactive)
GI50 (RPMI-8226): 12.1 µM (inactive)
GI50 (MDA-N): 13.3 µM (inactive)
GI50 (SNB-75): 11.9 µM (inactive)
GI50 (MCF7): 14.1 µM (inactive)
GI50 (786-0): 10.2 µM (inactive)
GI50 (MDA-MB-231): 17.4 µM (inactive)
GI50 (HOP-62): 17.9 µM (inactive)
GI50 (SK-OV-3): 16.9 µM (inactive)
GI50 (SF-295): 14.7 µM (inactive)
GI50 (NCI-H522): 14.9 µM (inactive)
GI50 (NCI/ADR-RES): 12.9 µM (inactive)
GI50 (A498): 18.7 µM (inactive)
GI50 (SK-MEL-5): 16 µM (inactive)
GI50 (Hs-578T): 12.6 µM (inactive)
GI50 (MOLT-4): 8.13 µM (inactive)
GI50 (IGROV-1): 17.8 µM (inactive)
GI50 (U-251): 18.5 µM (inactive)
GI50 (K562): 15.6 µM (inactive)
GI50 (NCI-H226): 16.9 µM (inactive)
GI50 (HCT-116): 13.7 µM (inactive)
GI50 (M14): 6.75 µM (inactive)
GI50 (HCT-15): 14.5 µM
GI50 (LOX IMVI): 14 µM (inactive)
GI50 (OVCAR-8): 13.6 µM (inactive)
GI50 (HL-60): 7.52 µM (inactive)
GI50 (TK-10): 19 µM (inactive)
GI50 (HOP-92): 14.2 µM (inactive)
GI50 (CCRF-CEM): 14.3 µM (inactive)
GI50 (DU-145): 15.5 µM (inactive)
GI50 (OVCAR-5): 17.9 µM (inactive)
GI50 (NCI-H23): 15.5 µM (inactive)
GI50 (UACC-62): 14.3 µM (inactive)
GI50 (MDA-MB-435): 15.1 µM (inactive)
GI50 (RXF 393): 6.68 µM (inactive)
GI50 (ACHN): 13.9 µM (inactive)
GI50 (OVCAR-4): 13.5 µM (inactive)
GI50 (BT-549): 14.6 µM (inactive)
GI50 (SF-268): 18.5 µM (inactive)
GI50 (SW-620): 11.4 µM (inactive)
GI50 (SN12C): 18.3 µM (inactive)
GI50 (UACC-257): 17.2 µM (inactive)
GI50 (HCC 2998): 13.9 µM (inactive)
GI50 (CAKI-1): 14 µM (inactive)
GI50 (EKVX): 18.9 µM (inactive)
GI50 (SK-MEL-2): 14 µM (inactive)
GI50 (OVCAR-3): 16.7 µM (inactive)
GI50 (SR): 3.42 µM (inactive)
GI50 (PC-3): 10.3 µM (inactive)
GI50 (HT-29): 13.6 µM (inactive)
GI50 (SNB-19): 16.6 µM (inactive)
